Test results as given in publication PMC12731105, “Design and Synthesis of New Quinoxaline Analogs to Regenerate Sensory Auditory Hair Cells” (Cells, 2025).

Tests used:
[1] = system: mouse auditory function; assay: Distortion product otoacoustic emissions (DPOAE); assay type: in vivo, mice (Mus musculus); conditions: for Frequencies at which DPOAE threshold improvement was statistically significant: 72 h group, p < 0.05; for Frequencies at which DPOAE threshold improvement was statistically significant / DPOAE thresholds at higher frequencies vs control: Two-Way ANOVA; for DPOAE vs control, 24 h treatment / DPOAE thresholds at higher frequencies vs control: C57BL/6J mice; for DPOAE vs control, 24 h treatment: 24 h post-treatment; for DPOAE thresholds at higher frequencies vs control: p < 0.01
Method: (§1) C57BL/6J male and female mice between postnatal day 24 and 30 P-24-30) were randomized into control and experimental groups (9 mice per group per compound), with each experimental group receiving a single intraperitoneal (IP) injection of Qx-294 or Qx-301 at a dose of 300 mg/kg body weight, dissolved in dimethyl sulfoxide (DMSO). Controls consisted of treatment with DMSO alone (vehicle). A total of 90 adult wild-type C57/BL6 mice were used in this study. Based on the analysis, animals were examined at various times following treatment as described below.
Mice from all groups underwent auditory brainstem response (ABR) and distortion product otoacoustic emissions (DPOAEs) tests before the initiation of treatment with either compounds or vehicle, and at 24, 48, and 72 h post-treatment, as described below. After audiometric testing, pre-treatment mice were placed in a warm and clean cage and monitored until they were awake and able to remain upright in a sternal position. Alternatively, post-treatment mice had their cochleae processed for histological examination.
Methods for recording distortion product otoacoustic emissions (DPOAEs) were similar to those previously described. Stimuli for DPOAEs were generated and controlled with modules from TDT. Pure tone frequencies (f1, f2, f2/f1 ratio ¼ 1.25), at equal levels (L1 ¼ L2 ¼ 60 dBSPL), 150 ms duration, were generated with independent sources (TDT RX6 processor) and routed through separate drivers to mix acoustically in the ear canal (via plastic tubing placed securely at the external acoustic meatus). Stimuli were calibrated in a 0.1 mL coupler, which simulates the volume of the mouse ear canal. Stimulus frequencies for the primaries are such that geometric mean (GM ¼ (f1 x f2)0.5) frequencies ranged from 6.0 to 48.5 kHz (at least eight frequencies per octave). Ear canal sound pressure levels were recorded using a low-noise probe microphone (Etymotic ER 10Bþ). The microphone output was amplified and fed into the TDT RX6 processor for digital sampling, spectral averaging, and fast Fourier transform (FFT) processing. The amplitude of f1, f2, and the cubic difference distortion product (2f1–f2) were measured from the FFT waveform. The noise floor was measured from the amplitudes in the fifth and twelfth frequency bins above and below (±60 and 120, resp.) the 2f1-f2 component. For statistical comparison (Two-Way ANOVA), the mean DPOAE amplitude across all tested primary frequency pairs was calculated and compared between treatment and control groups.

[2] = system: mouse organ of Corti; assay: TUNEL assay in the mouse organ of Corti; assay type: in vivo; conditions: mice, any treatment group (24, 48, 72 h)
Method: as §1
In vitro cell proliferation effects of all ten initial compounds (Figure 1A,B) were tested on HEI-OC1, Neuro-2A and HT-1080 cells by TACS® 3-(4,5-dimethylthiazol-2-yl)-2,5-diphenyltetrazolium bromide (MTT) Cell Proliferation Assay (R&D Systems, Minneapolis, MN, USA, 4890-025-K), following the manufacturer’s protocol. Absorbance was measured with SpectraMax® M Series Multi-Mode Microplate Reader with Soft Max Pro 7.2 GxP Software (Molecular Devices, Sunnyvale, CA, USA), and the average OD in control cells was taken as 100% of viability. Upon selecting the most viable compounds (Qx-294 and Qx-301), we proceeded with in vivo experiments. […]

[3] = Cytotoxicity, MTT colorimetric microculture assay; assay type: cell-based; conditions: mouse, HEI-OC1 cells (auditory cell line), NCI criterion of cytotoxicity IC50 < 20 μg/mL
Method: The cytotoxicity of Qx-294 and Qx-301 compounds was assessed in the mouse auditory HEI-OC1 cell line using the (MTT) colorimetric microculture assay method as previously described. HEI-OC1 cells were cultured in DMEM (Corning, NY, USA, 10-013-CVC) supplemented with 10% fetal bovine serum (FBS) (Pansera) and 50 μg/mL ampicillin for 12 h. For cytotoxic assessment, increasing concentrations of Qx-294 and Qx-301 were added to a HEI-OC1 cell suspension (5 × 10^4 cells/well). Cell growth was determined 72 h later by adding 50 µL of MTT (2.5 mg/mL). This was reduced by mitochondrial dehydrogenase of viable cells in an insoluble blue formazan product during the 4 h contact period at 37 °C. After the supernatant was removed, the formazan crystals were solubilized by adding DMSO (100 µL). These plates were read at 570 nm with SpectraMax® M Series Multi-Mode Microplate Reader with Soft Max Pro 7.2 GxP Software (Molecular Devices, Sunnyvale, CA, USA). At each dose level of the compounds tested, as well as the untreated (vehicle-only) controls, absorbance values were recorded and compared between different treatment and time points to assess cell growth and viability.

[4] = system: mechanotransduction channel activity of mouse cochlear HCs; assay: FM1-43 uptake in mouse cochlear HCs; assay type: in vivo; conditions: mice, 24, 48 and 72 h after injection
Method: The styryl pyridinium dye FM1-43 provides an optical measure of mechanotransduction channel function and, therefore, was used as a proxy for the viability of the neuromast cells treated with QX-294 or QX-301, as well as indirect information on the functional capability of newly formed HCs. FM1-43FX (Thermo Scientific, Waltham, MA, USA) uptake experiments in zebrafish were performed as previously described. Zebrafish were incubated with E3 alone (control) or in the presence of Qx-294 or Qx-301, both at 300 μM, for 7 h and then immediately exposed to 3 μM FM1-43FX for 40 s. Alternatively, animals were transferred to a fresh E3 solution for 1 h and then exposed to the dye. For mouse treatment, 24, 48, and 72 h after animals were injected with […] Qx-294 or Qx-301, their cochleae were dissected, transiently exposed to FM1-43 FX dye (1 mg/mL) for 45 s, and then fixed in 4% PFA. All animals were P28 at completion of the treatment. Fluorescence incorporated was quantified according to [19] using ImageJ (ImageJ2 1.54r).

[5] = Plasma protein binding (rapid equilibrium dialysis); assay type: in vitro ADME, mice; conditions: mouse, plasma, mice plasma protein binding (footnote); RED, 10 µg/mL, four hours, 37 °C; read-out: PPB (% Bound) (converted)

| fraction unbound at 4 h, 10 µg/mL [5] | Structure (SMILES) | Frequencies at which DPOAE threshold improvement was statistically significant [1] | DPOAE vs control, 24 h treatment [1] | DPOAE thresholds at higher frequencies vs control [1] | Apoptosis (TUNEL) in the OC [2] | IC50 at 72 h [3] [µg/mL] | FM1-43 fluorescence intensity incorporated by the cochleae vs control [4] |
| --- | --- | --- | --- | --- | --- | --- | --- |
| 0.115 | c1ccc2nc(N3CCOCC3)cnc2c1 [Qx-294, 2-(morpholine)-quinoxaline] | above 16 kHz | no statistically significant differences | significantly lower than those of the control group | no signs of apoptosis | > 20 | did not show any significant differences from the control samples |
| ~0.68 | c1ccc2nc(N3CCCC3)cnc2c1 [Qx-301, 2-(pyrrolidine)-quinoxaline] | above 22.6 kHz | no statistically significant differences | significantly lower than those of the control group | no signs of apoptosis | > 20 | did not show any significant differences from the control samples |
